Test system: 931267-113-T-J1-PDC KRAS spheroid with HUVEC/MSC, viability
Test: Anticancer human tumor 931267-113-T-J1-PDC patient-derived colon adenocarcinoma cell line growth inhibition [KRAS2]
Settings: for IC50: curve of first compound; for viability, T/C: stronger effect = lower value
Method in brief: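 Combination screen of spheroid viability in tumor-cell co-cultures with endothelial (HUVEC) and mesenchymal stem cell stroma. Each agent was tested in half-log dilutions, topping at clinical Cmax or at 10 microM without a known Cmax.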

[1] = second compound 0.0316 µM, first compound 0.000316 µM
[2] = second compound 0.0316 µM, first compound 0.001 µM
[3] = second compound 0.0316 µM, first compound 0.00316 µM
[4] = second compound 0.0316 µM, first compound 0.01 µM
[5] = second compound 0.0316 µM, first compound 0.0316 µM
[6] = second compound 0.1 µM, first compound 0.000316 µM
[7] = second compound 0.1 µM, first compound 0.001 µM
[8] = second compound 0.1 µM, first compound 0.00316 µM
[9] = second compound 0.1 µM, first compound 0.01 µM
[10] = second compound 0.1 µM, first compound 0.0316 µM
[11] = second compound 0.316 µM, first compound 0.000316 µM
[12] = second compound 0.316 µM, first compound 0.001 µM
[13] = second compound 0.316 µM, first compound 0.00316 µM
[14] = second compound 0.316 µM, first compound 0.01 µM
[15] = second compound 0.316 µM, first compound 0.0316 µM
[16] = second compound 1 µM, first compound 0.000316 µM
[17] = second compound 1 µM, first compound 0.001 µM
[18] = second compound 1 µM, first compound 0.00316 µM
[19] = second compound 1 µM, first compound 0.01 µM
[20] = second compound 1 µM, first compound 0.0316 µM
[21] = second compound 3.16 µM, first compound 0.000316 µM
[22] = second compound 3.16 µM, first compound 0.001 µM
[23] = second compound 3.16 µM, first compound 0.00316 µM
[24] = second compound 3.16 µM, first compound 0.01 µM
[25] = second compound 3.16 µM, first compound 0.0316 µM
[26] = second compound 0.0316 µM, first compound 0.1 µM
[27] = second compound 0.1 µM, first compound 0.1 µM
[28] = second compound 0.316 µM, first compound 0.1 µM
[29] = second compound 1 µM, first compound 0.1 µM
[30] = second compound 3.16 µM, first compound 0.1 µM
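Also: compound exposure lasted 7 days before the readout.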
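For viability, T/C in this document: 100% = DMSO vehicle control viability.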

CC(=O)Nc1cccc(-n2c(=O)n(C3CC3)c(=O)c3c(Nc4ccc(I)cc4F)n(C)c(=O)c(C)c32)c1 + C=CC(=O)N1CCN(c2nc(OCC3CCCN3C)nc3c2CCN(c2cccc4cccc(C)c24)C3)CC1CC#N showed an IC50 (second compound 0.0316 µM) of 6.25 nM, an IC50 (second compound 0.1 µM) of 11.9 nM and an IC50 (second compound 0.316 µM) of 4.45 nM. For the same molecule, the IC50 (second compound 1 µM) was 1.48 nM, the IC50 (second compound 3.16 µM) was less than 0.1 nM and the viability, T/C (second compound 0.0316 µM, first compound 0.0001 µM) was 98.9%. The viability, T/C [1] was 78%, the viability, T/C [2] was 69.3% and the viability, T/C [3] was 54.7%. It also gave a viability, T/C [4] of 60.3%, a viability, T/C [5] of 13.2% and a viability, T/C (second compound 0.1 µM, first compound 0.0001 µM) of 83%. It also gave a viability, T/C [6] of 82.4%, a viability, T/C [7] of 64.2% and a viability, T/C [8] of 72.6%. For the same molecule, the viability, T/C [9] was 59.5%, the viability, T/C [10] was 8.65% and the viability, T/C (second compound 0.316 µM, first compound 0.0001 µM) was 69.7%. The viability, T/C [11] was 83%, the viability, T/C [12] was 54.9% and the viability, T/C [13] was 53.8%. It also gave a viability, T/C [14] of 42.7%, a viability, T/C [15] of 9.24% and a viability, T/C (second compound 1 µM, first compound 0.0001 µM) of 74.7%. It also gave a viability, T/C [16] of 59.8%, a viability, T/C [17] of 45.9% and a viability, T/C [18] of 52.9%. For the same molecule, the viability, T/C [19] was 28.2%, the viability, T/C [20] was 9.56% and the viability, T/C (second compound 3.16 µM, first compound 0.0001 µM) was 0.22%. For the same molecule, the viability, T/C [21] was 0.24%, the viability, T/C [22] was 0.28% and the viability, T/C [23] was 0.24%. For the same molecule, the viability, T/C [24] was 0.21% and the viability, T/C [25] was 0.25%.

In the case of CC(C)n1nc(-c2ccc3oc(N)nc3c2)c2c(N)ncnc21 + C=CC(=O)N1CCN(c2nc(OCC3CCCN3C)nc3c2CCN(c2cccc4cccc(C)c24)C3)CC1CC#N, the IC50 (second compound 0.0316 µM) is reported as 7.3 nM, the IC50 (second compound 0.1 µM) is reported as 6.23 nM and the IC50 (second compound 0.316 µM) is reported as 7.32 nM. The IC50 (second compound 1 µM) was 5.74 nM, the IC50 (second compound 3.16 µM) was less than 0.316 nM and the viability, T/C [1] was 91.9%. For the same molecule, the viability, T/C [2] was 89.1%, the viability, T/C [3] was 71.1% and the viability, T/C [4] was 41.9%. For the same molecule, the viability, T/C [5] was 26.6%, the viability, T/C [26] was 21.8% and the viability, T/C [6] was 111%. It also gave a viability, T/C [7] of 91.8%, a viability, T/C [8] of 65.2% and a viability, T/C [9] of 40.7%. It also gave a viability, T/C [10] of 22.6%, a viability, T/C [27] of 19.9% and a viability, T/C [11] of 89.6%. For the same molecule, the viability, T/C [12] was 95.9%, the viability, T/C [13] was 67.1% and the viability, T/C [14] was 44.6%. The viability, T/C [15] was 22.7%, the viability, T/C [28] was 18.3% and the viability, T/C [16] was 106%. It also gave a viability, T/C [17] of 78.2%, a viability, T/C [18] of 62.9% and a viability, T/C [19] of 41.6%. It also gave a viability, T/C [20] of 24.8%, a viability, T/C [29] of 21.6% and a viability, T/C [21] of 18.4%. For the same molecule, the viability, T/C [22] was 0.63%, the viability, T/C [23] was 13.2% and the viability, T/C [24] was 0.24%. The viability, T/C [25] was 0.27% and the viability, T/C [30] was 1.47%.

COC(=O)c1ccc2c(C(=Nc3ccc(N(C)C(=O)CN4CCN(C)CC4)cc3)c3ccccc3)c(O)[nH]c2c1 + C=CC(=O)N1CCN(c2nc(OCC3CCCN3C)nc3c2CCN(c2cccc4cccc(C)c24)C3)CC1CC#N gave an IC50 (second compound 0.0316 µM) of 683 nM, an IC50 (second compound 0.1 µM) of 1170 nM and an IC50 (second compound 0.316 µM) of 647 nM. The IC50 (second compound 1 µM) was 120 nM, the IC50 (second compound 3.16 µM) was less than 31.6 nM and the viability, T/C [5] was 90.5%. For the same molecule, the viability, T/C [26] was 87.1%, the viability, T/C (second compound 0.0316 µM, first compound 0.316 µM) was 61.1% and the viability, T/C (second compound 0.0316 µM, first compound 1 µM) was 50.7%. For the same molecule, the viability, T/C (second compound 0.0316 µM, first compound 3.16 µM) was 0.59%, the viability, T/C (second compound 0.0316 µM, first compound 10 µM) was 0.32% and the viability, T/C [10] was 73.9%. For the same molecule, the viability, T/C [27] was 76.4%, the viability, T/C (second compound 0.1 µM, first compound 0.316 µM) was 64.5% and the viability, T/C (second compound 0.1 µM, first compound 1 µM) was 57.8%. For the same molecule, the viability, T/C (second compound 0.1 µM, first compound 3.16 µM) was 0.37%, the viability, T/C (second compound 0.1 µM, first compound 10 µM) was 0.38% and the viability, T/C [15] was 95%. It also gave a viability, T/C [28] of 88.8%, a viability, T/C (second compound 0.316 µM, first compound 0.316 µM) of 67.6% and a viability, T/C (second compound 0.316 µM, first compound 1 µM) of 42.8%. It also gave a viability, T/C (second compound 0.316 µM, first compound 3.16 µM) of 0.3%, a viability, T/C (second compound 0.316 µM, first compound 10 µM) of 0.2% and a viability, T/C [20] of 47.2%. The viability, T/C [29] was 63.7%, the viability, T/C (second compound 1 µM, first compound 0.316 µM) was 20.4% and the viability, T/C (second compound 1 µM, first compound 1 µM) was 0.52%. It also gave a viability, T/C (second compound 1 µM, first compound 3.16 µM) of 0.13%, a viability, T/C (second compound 1 µM, first compound 10 µM) of 0.19% and a viability, T/C [25] of 0.24%. The viability, T/C [30] was 0.16%, the viability, T/C (second compound 3.16 µM, first compound 0.316 µM) was 0.25% and the viability, T/C (second compound 3.16 µM, first compound 1 µM) was 0.15%. For the same molecule, the viability, T/C (second compound 3.16 µM, first compound 3.16 µM) was 0.21% and the viability, T/C (second compound 3.16 µM, first compound 10 µM) was 0.22%.

From PubChem BioAssay AID1963863 (Molecular Pharmacology Branch, DTP, NCI, 2024)
